From PubChem BioAssay (NCI)
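A five-concentration, 48-hour dose response in 96-well plates underlies each endpoint, interpolated linearly between surrounding concentrations. The concentration for 50% growth inhibition is given as GI50. TGI: total growth inhibition.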

How the values were obtained:
Assay in all cases: NCI tumour cell line growth inhibition, 48 h
NCI-H23 lung = test system: NCI-H23 lung
NCI-H460 lung = test system: NCI-H460 lung
NCI-H522 lung = test system: NCI-H522 lung
NCI/ADR-RES ovarian = test system: NCI/ADR-RES ovarian
OVCAR-3 ovarian = test system: OVCAR-3 ovarian
OVCAR-4 ovarian = test system: OVCAR-4 ovarian
OVCAR-5 ovarian = test system: OVCAR-5 ovarian
OVCAR-8 ovarian = test system: OVCAR-8 ovarian
PC-3 prostate = test system: PC-3 prostate
RPMI-8226 leukemia = test system: RPMI-8226 leukemia
RXF 393 renal = test system: RXF 393 renal
SF-268 CNS = test system: SF-268 CNS
SF-295 CNS = test system: SF-295 CNS
SF-539 CNS = test system: SF-539 CNS
SK-MEL-2 melanoma = test system: SK-MEL-2 melanoma
SK-MEL-28 melanoma = test system: SK-MEL-28 melanoma
SK-MEL-5 melanoma = test system: SK-MEL-5 melanoma
SK-OV-3 ovarian = test system: SK-OV-3 ovarian
SN12C renal = test system: SN12C renal
SNB-19 CNS = test system: SNB-19 CNS
SNB-75 CNS = test system: SNB-75 CNS
SR leukemia = test system: SR leukemia
SW-620 colon = test system: SW-620 colon
T-47D breast = test system: T-47D breast
TK-10 renal = test system: TK-10 renal
U251 CNS = test system: U251 CNS
UACC-257 melanoma = test system: UACC-257 melanoma
UACC-62 melanoma = test system: UACC-62 melanoma
UO-31 renal = test system: UO-31 renal

Question: CC1=C2C(=C[C@@](C)(COC(=O)c3ccc(S(=O)(=O)F)cc3)[C@@H]2O)C(=O)[C@](C)(O)C12CC2 was tested. Which TGI (NCI-H23 lung) did it give?
Answer: 3620 nM

Question: What about the GI50 (NCI-H460 lung) of the same molecule?
Answer: 614 nM

Question: What about the TGI (NCI-H460 lung) of the same molecule?
Answer: 1870 nM

Question: What about the GI50 (NCI-H522 lung) of the same molecule?
Answer: 745 nM

Question: And the TGI (NCI-H522 lung)?
Answer: 2530 nM

Question: What about the GI50 (NCI/ADR-RES ovarian) of the same molecule?
Answer: 815 nM

Question: And the TGI (NCI/ADR-RES ovarian)?
Answer: 3970 nM

Question: And the GI50 (OVCAR-3 ovarian)?
Answer: 906 nM

Question: What about the TGI (OVCAR-3 ovarian) of the same molecule?
Answer: 3800 nM

Question: And the GI50 (OVCAR-4 ovarian)?
Answer: 1690 nM

Question: And the TGI (OVCAR-4 ovarian)?
Answer: 4390 nM

Question: And the GI50 (OVCAR-5 ovarian)?
Answer: 982 nM

Question: And the TGI (OVCAR-5 ovarian)?
Answer: 5120 nM

Question: And the GI50 (OVCAR-8 ovarian)?
Answer: 903 nM

Question: And the TGI (OVCAR-8 ovarian)?
Answer: 3620 nM

Question: And the GI50 (PC-3 prostate)?
Answer: 1710 nM

Question: What about the TGI (PC-3 prostate) of the same molecule?
Answer: > 29100 nM

Question: And the GI50 (RPMI-8226 leukemia)?
Answer: 24500 nM

Question: What about the TGI (RPMI-8226 leukemia) of the same molecule?
Answer: > 74200 nM

Question: What about the GI50 (RXF 393 renal) of the same molecule?
Answer: 522 nM

Question: And the TGI (RXF 393 renal)?
Answer: 1230 nM

Question: And the GI50 (SF-268 CNS)?
Answer: 1060 nM

Question: What about the TGI (SF-268 CNS) of the same molecule?
Answer: 6130 nM

Question: And the GI50 (SF-295 CNS)?
Answer: 2140 nM

Question: And the TGI (SF-295 CNS)?
Answer: 8200 nM

Question: What about the GI50 (SF-539 CNS) of the same molecule?
Answer: 1860 nM

Question: What about the TGI (SF-539 CNS) of the same molecule?
Answer: 3710 nM

Question: And the GI50 (SK-MEL-2 melanoma)?
Answer: 613 nM

Question: What about the TGI (SK-MEL-2 melanoma) of the same molecule?
Answer: 1290 nM

Question: What about the GI50 (SK-MEL-28 melanoma) of the same molecule?
Answer: 556 nM

Question: What about the TGI (SK-MEL-28 melanoma) of the same molecule?
Answer: 2050 nM

Question: What about the GI50 (SK-MEL-5 melanoma) of the same molecule?
Answer: 1490 nM

Question: What about the TGI (SK-MEL-5 melanoma) of the same molecule?
Answer: 3510 nM

Question: And the GI50 (SK-OV-3 ovarian)?
Answer: 2520 nM

Question: What about the TGI (SK-OV-3 ovarian) of the same molecule?
Answer: 7890 nM

Question: What about the GI50 (SN12C renal) of the same molecule?
Answer: 1200 nM

Question: What about the TGI (SN12C renal) of the same molecule?
Answer: 5460 nM

Question: What about the GI50 (SNB-19 CNS) of the same molecule?
Answer: 1820 nM

Question: What about the TGI (SNB-19 CNS) of the same molecule?
Answer: 10400 nM

Question: What about the GI50 (SNB-75 CNS) of the same molecule?
Answer: 1490 nM

Question: And the TGI (SNB-75 CNS)?
Answer: 3070 nM

Question: What about the GI50 (SR leukemia) of the same molecule?
Answer: 1360 nM

Question: What about the TGI (SR leukemia) of the same molecule?
Answer: > 22600 nM

Question: And the GI50 (SW-620 colon)?
Answer: 1970 nM

Question: What about the TGI (SW-620 colon) of the same molecule?
Answer: 8790 nM

Question: And the GI50 (T-47D breast)?
Answer: 2060 nM

Question: What about the TGI (T-47D breast) of the same molecule?
Answer: 18800 nM

Question: And the GI50 (TK-10 renal)?
Answer: 2510 nM

Question: And the TGI (TK-10 renal)?
Answer: 6470 nM

Question: And the GI50 (U251 CNS)?
Answer: 1400 nM

Question: And the TGI (U251 CNS)?
Answer: > 25100 nM

Question: What about the GI50 (UACC-257 melanoma) of the same molecule?
Answer: 2050 nM

Question: What about the TGI (UACC-257 melanoma) of the same molecule?
Answer: 4780 nM

Question: And the GI50 (UACC-62 melanoma)?
Answer: 894 nM

Question: And the TGI (UACC-62 melanoma)?
Answer: 2560 nM

Question: And the GI50 (UO-31 renal)?
Answer: 1610 nM

Question: And the TGI (UO-31 renal)?
Answer: 3090 nM
